Consider 7 compounds from ChEMBL document CHEMBL5579804, “Synthesis and kinetic evaluation of phosphomimetic inhibitors targeting type B ribose-5-phosphate isomerase from Mycobacterium tuberculosis” (Bioorg Med Chem Lett, 2024).

For test [1], the target named is T1, ribose-5-phosphate isomerase (Spinacia oleracea) (UniProt Q8RU73).
T1 sequence (whole entry): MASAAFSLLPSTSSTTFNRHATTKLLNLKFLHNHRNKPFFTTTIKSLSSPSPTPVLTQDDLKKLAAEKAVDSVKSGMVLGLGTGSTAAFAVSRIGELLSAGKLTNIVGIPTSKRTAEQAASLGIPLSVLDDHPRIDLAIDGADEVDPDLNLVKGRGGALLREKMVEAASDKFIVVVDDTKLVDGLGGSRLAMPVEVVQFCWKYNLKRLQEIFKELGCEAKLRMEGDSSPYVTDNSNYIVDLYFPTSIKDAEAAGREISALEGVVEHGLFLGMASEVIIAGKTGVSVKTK
As to the kind of experiment: Competitive inhibition of Spinacia oleracea RPIA assessed as ratio of Km/Ki using D-ribose-5-phosphate as substrate by Cheng-Prusoff equation analysis.

Test [2] deals with T2, Ribose-5-phosphate isomerase B (Mycobacterium tuberculosis) (UniProt P9WKD7).
T2 sequence (whole entry): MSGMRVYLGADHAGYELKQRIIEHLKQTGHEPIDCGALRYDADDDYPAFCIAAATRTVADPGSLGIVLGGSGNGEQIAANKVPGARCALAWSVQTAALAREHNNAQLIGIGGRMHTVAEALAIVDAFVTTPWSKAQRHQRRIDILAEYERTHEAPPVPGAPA
In words: Competitive inhibition of Mycobacterium tuberculosis RPIB assessed as ratio of Km/Ki using D-ribose-5-phosphate as substrate by Cheng-Prusoff equation analysis.

A short description of test [3]: Selectivity ratio of Km/Ki for Mycobacterium tuberculosis RpiB to Km/Ki for Spinacia oleracea RpiA.
The target in test [4] is T3, Ribose-5-phosphate isomerase B (Escherichia coli (strain K12)) (UniProt P37351).
T3 sequence (whole entry): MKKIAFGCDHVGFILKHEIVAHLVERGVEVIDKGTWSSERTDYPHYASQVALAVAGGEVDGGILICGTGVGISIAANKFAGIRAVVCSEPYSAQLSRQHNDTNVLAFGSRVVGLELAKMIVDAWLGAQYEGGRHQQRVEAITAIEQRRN
In words: Competitive inhibition of Escherichia coli RPIB assessed as ratio of Km/Ki using D-ribose-5-phosphate as substrate by Cheng-Prusoff equation analysis.

For the compound `CC(C(C(=O)O)C(=O)O)[C@@H](O)[C@@H](O)[C@@H](O)CCC(=O)O` (some centres not stated), the Ratio in test [1] was less than 4; in test [2], 7. Besides, the Selectivity ratio in test [3] is greater than 1.7.

As to `O=C(O)C(C[C@H]1OC(O)[C@H](O)[C@@H]1O)C(=O)O` (some centres not stated), the Ratio in test [1] was 7; in test [4] it was 2; in test [2] it was 6. Besides, the Selectivity ratio in test [3] is 0.8.

Consider `O=S(=O)(O)CC[C@H]1OC(O)[C@H](O)[C@@H]1O` (some centres not stated), for which the Ratio in test [1] was determined as 26; in test [4] it was 9; in test [2] it was 19. Besides, the Selectivity ratio in test [3] is 0.7.

For `O=S(=O)(O)OC[C@H]1OC(O)[C@H](O)[C@@H]1O` (some centres not stated), the results for the Ratio in test [1], in test [4] and in test [2] were 17, 18 and 53, respectively. Moreover, the Selectivity ratio in test [3] was determined as 3.1.

Take `O=C(O)[C@@H](O)[C@@H](O)[C@@H](O)COP(=O)(O)O` (single isomer, unassigned): the Ratio in test [1] amounted to 79; in test [2] it was 233. For the same compound, the Selectivity ratio in test [3] is 3.

With `CC(C(C(=O)O)C(=O)O)[C@@H](O)[C@@H](O)[C@@H](O)CCP(=O)(O)O` (some centres not stated), the Ratio was less than 4 in test [1] and 26 in test [2]. Moreover, the Selectivity ratio in test [3] is greater than 6.5.

Consider `O=C(O)[C@H](O)[C@H](O)[C@H](O)COP(=O)(O)O`, for which the Selectivity ratio in test [3] stood at 4.5.
